Experimental data: patent publication US9827315B2, “Compositions of pharmaceutical actives containing diethylene glycol monoethyl ether or other alkyl derivatives” (THEMIS MEDICARE LIMITED, priority 2013, dated 2017)
Converted amounts (≈) assume the structure as drawn.

Assays:
[1] = Viscosity of formulations prepared in Diethylene glycol monoethyl ether and of comparators; format: physicochemical; conditions: final solution/formulation; marketed comparators
[2] = cited from earlier work
[3] = cited from earlier work; for half-life: in vivo
[4] = physchem; conditions: organic solvent or mixture
Experimental: Progesterone is dissolved in solution of 20% Benzyl alcohol giving a clear solution and add Diethylene glycol monoethyl ether with constant stirring and make the volume up to 100 ml with Diethylene glycol monoethyl ether. […] This solution is filled in 3 ml clear glass vial.

[5] = Intramuscular, Intravenous and Intraocular safety studies; conditions: in vivo
[6] = tested on: Rabbits (New Zealand White); assay: Acute Eye Irritation/Corrosion Test in Rabbits; format: in vivo
Experimental: Acute Eye Irritation/Corrosion Test for Diethylene Glycol Monoethyl Ether (Transcutol HP) in Rabbits • Test Item Transcutol HP • Diluted with: Water for injection • Test System Rabbits (New Zealand White) • Total No. of Animals: 6 animals for initial test • 12 animals for confirmatory test • No. of groups: 6 Study Design:
Initial test is carried out by using one animal per group.
Irrigation was carried out after 24 hrs from the treatment and the animals are again observed for symptoms of toxicity.
Confirmatory test is carried out by using two animals per group.
The dosing methodology and irrigation procedure was same as mentioned in the initial test and the observations were found as follows: […]

[7] = physchem; conditions: organic solvent or mixture, Solubility in Diethylene Glycol Monoethyl Ether

For `CC(C)c1cccc(C(C)C)c1O` [Propofol, 2,6-diisopropylphenol], the Viscosity [1] was “less than 5 cps”.

For `COCCCOc1ccnc(C[S+]([O-])c2nc3ccccc3[nH]2)c1C` (racemic) [Rabeprazole, (RS)-2-([4-(3-methoxypropoxy)-3-methylpyridin-2-yl]methylsulfinyl)-1H-benzo[d]imidazole], the “Solubility in water (descriptive)” value [2] is listed as “insoluble” and the bioavailability ([3]; enteric coated tablet) is listed as 51%.

For `CN1C(C(=O)Nc2ccccn2)=C(O)c2ccccc2S1(=O)=O` [Piroxicam, (8E)-8-[hydroxy-(pyridin-2-ylamino)methylidene]-9-methyl-10,10-dioxo-10λ6-thia-9-azabicyclo[4.4.0]deca-1,3,5-trien-7-one], the Viscosity [1] was 3.365 cps.

In the case of `C[C@H]1O[C@@H](O[C@H]2[C@@H](O)C[C@H](OC3CC[C@@]4(C)[C@H](CC[C@@H]5[C@@H]4C[C@@H](O)[C@]4(C)[C@@H](C6=CC(=O)OC6)CC[C@]54O)C3)O[C@@H]2C)C[C@H](O)C1OC1C[C@H](O)[C@H](O)[C@@H](C)O1` (stereo partly drawn) [Digoxin, (3β, 5β,12β)-3-[(O-2,6-dideoxy-β-D-ribo-hexopyranosyl-(1→4)-O-2,6-dideoxy-β-D-ribo-hexopyranosyl-(1→4)-2,6-dideoxy-β-D-ribo-hexopyranosyl)oxy]-12,14-dihydroxy-card-20(22)-enolide], the half-life [3] is listed as “about 36 hours”.

In the case of `CC(=O)[C@H]1CC[C@H]2[C@@H]3CCC4=CC(=O)CC[C@]4(C)[C@H]3CC[C@]12C` [Progesterone, pregn-4-ene-3,20-dione], the solubility [4] is given as ≤ 100 mg/mL, the solubility in water ([2]; at 19° C.) is given as < 0.1 g/100 ml and the “Solubility in water (descriptive)” value [2] is given as “insoluble”.

Work on `C[C@@H](c1ncncc1F)[C@](O)(Cn1cncn1)c1ccc(F)cc1F` [Voricanozole, (2R,3S)-2-(2,4-difluorophenyl)-3-(5-fluoropyrimidin-4-yl)-1-(1H-1,2,4-triazol-1-yl)butan-2-ol] yielded a Viscosity [1] of 2.977 cps.

For `CCOCCOCCO` [Diethylene glycol monoethyl ether, 2-(2-Ethoxyethoxy)ethanol], the “Solubility in water (descriptive)” value [2] is listed as “soluble”, the “safety in Intramuscular, Intravenous and Intraocular studies” value [5] is listed as “safe and non toxic” and the “eye irritation, confirmatory test” value ([6]; 1 hr, first three groups) is listed as “no test item related effects”. For the same compound, the “eye irritation, confirmatory test” value ([6]; 1 hr, group 4 and group 5) was “Mild irritation”, the “eye irritation, confirmatory test” value ([6]; 1 hr, group 6) was “severe irritation” and the “eye irritation, initial test” value ([6]; 24 hr, all animals except group 6) was “normal”. The “eye irritation, confirmatory test” value ([6]; 24 hr, group 1 to group 3) was “normal”, the “eye irritation, confirmatory test” value ([6]; 24 hr, group 4 and group 5) was “mild irritation including Chemosis, lacrimation and mild pupillary constriction” and the “eye irritation, confirmatory test” value ([6]; 24 hr, group 6) was “severe irritation”. The “eye irritation, initial test” value ([6]; 24 hr, group 6) was “mild irritation including Chemosis and Lacrimation”, the “ocular toxicity, summary” value ([6]; concentration of 100%, intra occularly) was “irritant but not corrosive” and the “eye irritation, initial test” value ([6]; first hour, first three groups) was “no test item related effects”. For the same compound, the “eye irritation, initial test” value ([6]; first hour, group 4 and 5) was “Mild irritation”, the “eye irritation, initial test” value ([6]; first hour, group 6) was “moderate irritation” and the “corrosion effect, initial test” value ([6]; rabbit, in vivo) was “no corrosion effect”. For the same compound, the “ocular toxicity, summary” value ([6]; up to 80% of concentration) was “not showing any occular toxicity”.

In the case of `C[C@]12CC[C@H]3[C@@H](CCC4=CC(=O)CC[C@@]43C)[C@@H]1CC[C@@H]2O` [Testosterone], the “Solubility in water (descriptive)” value [2] is given as “practically insoluble” and the half-life [3] is given as 2 to 4 h.

For `C[C@]12CC[C@H]3[C@@H](CCC4=CC(=O)CC[C@@]43C)[C@@H]1CC[C@@H]2OC(=O)CCC1CCCC1` [Testosterone Cypionate, androst-4-en-3-one, 17-(3-cyclopentyl-1-oxopropoxy)-, (17β)-], the solubility [7] was 50 mg/mL (≈ 121 mM) and the Viscosity [1] was “less than 7 cps”.
